Reference: PubChem BioAssay AID248 (DTP/NCI, 2004)
Inconclusive results and toxic doses are left out. Cut-off read from the data, not from the text of the source: active = T/C of 150% or more; inactive = T/C below 125%.

Test system: L1210 leukemia ip in BDF1 mice, survival T/C
Assay: NCI In Vivo Anticancer Drug Screen. Data for tumor model L1210 Leukemia (intraperitoneal) in B6D2F1 (BDF1) mice
Conditions: endpoint: mean survival time, higher = longer survival
Outline: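 Survival endpoint. Drug-treated group vs vehicle group, expressed as T divided by C. Tumor passaged by transplantation.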

[1] = dose: 100.0 mg/kg/injection, schedule: Q01DX001 (ip), vehicle: carboxymethylcellulose (CMC)
[2] = dose: 200.0 mg/kg/injection, schedule: Q01DX001 (ip), vehicle: carboxymethylcellulose (CMC)
[3] = dose: 400.0 mg/kg/injection, schedule: Q01DX001 (ip), vehicle: carboxymethylcellulose (CMC)
[4] = dose: 50.0 mg/kg/injection, schedule: Q01DX009 (ip), vehicle: saline
[5] = dose: 100.0 mg/kg/injection, schedule: Q04DX003 (ip), vehicle: Klucel (hydroxypropylcellulose) (HPC)
[6] = dose: 200.0 mg/kg/injection, schedule: Q04DX003 (ip), vehicle: Klucel (hydroxypropylcellulose) (HPC)
[7] = dose: 400.0 mg/kg/injection, schedule: Q04DX003 (ip), vehicle: Klucel (hydroxypropylcellulose) (HPC)
[8] = dose: 100.0 mg/kg/injection, schedule: Q01DX009 (ip), vehicle: Klucel (hydroxypropylcellulose) (HPC)
[9] = dose: 200.0 mg/kg/injection, schedule: Q01DX009 (ip), vehicle: Klucel (hydroxypropylcellulose) (HPC)
[10] = dose: 400.0 mg/kg/injection, schedule: Q01DX009 (ip), vehicle: Klucel (hydroxypropylcellulose) (HPC)
[11] = dose: 100.0 mg/kg/injection, schedule: Q01DX001 (ip), vehicle: other
[12] = dose: 200.0 mg/kg/injection, schedule: Q01DX001 (ip), vehicle: other
[13] = dose: 400.0 mg/kg/injection, schedule: Q01DX001 (ip), vehicle: other
[14] = dose: 100.0 mg/kg/injection, schedule: Q01DX009 (ip), vehicle: saline with Tween-80
[15] = dose: 200.0 mg/kg/injection, schedule: Q01DX009 (ip), vehicle: saline with Tween-80
[16] = dose: 400.0 mg/kg/injection, schedule: Q01DX009 (ip), vehicle: saline with Tween-80
[17] = dose: 100.0 mg/kg/injection, schedule: Q04DX003 (ip), vehicle: saline with Tween-80

Measured: T/C

ClC(Cl)=C(Cl)C(Cl)=C(Cl)Cl
inactive: dose: 3.13 mg/kg/injection, schedule: Q04DX003 (ip), vehicle: Klucel (hydroxypropylcellulose) (HPC) 98 % of control | dose: 6.25 mg/kg/injection, schedule: Q04DX003 (ip), vehicle: Klucel (hydroxypropylcellulose) (HPC) 100 % of control | dose: 12.5 mg/kg/injection, schedule: Q04DX003 (ip), vehicle: Klucel (hydroxypropylcellulose) (HPC) 98 % of control | dose: 100.0 mg/kg/injection, schedule: Q04DX003 (ip), vehicle: carboxymethylcellulose (CMC) 101 % of control

C/C=C(\C#N)c1ccc(-c2ccccc2)cc1
inactive: dose: 100.0 mg/kg/injection, schedule: Q01DX001 (ip), vehicle: saline with Tween-80 94 % of control | dose: 200.0 mg/kg/injection, schedule: Q01DX001 (ip), vehicle: saline with Tween-80 91 % of control | dose: 400.0 mg/kg/injection, schedule: Q01DX001 (ip), vehicle: saline with Tween-80 98 % of control

CCCCOC(=O)C1C=C(N)CCC1 (centres undefined)
inactive: [1] 92 % of control | [2] 89 % of control | [3] 94 % of control

COc1ccccc1OCCOCCN(C)C1CCCCC1
inactive: dose: 12.5 mg/kg/injection, schedule: Q01DX009 (ip), vehicle: Klucel (hydroxypropylcellulose) (HPC) 93 % of control | dose: 25.0 mg/kg/injection, schedule: Q01DX009 (ip), vehicle: Klucel (hydroxypropylcellulose) (HPC) 94 % of control | dose: 25.0 mg/kg/injection, schedule: Q04DX002 (ip), vehicle: Klucel (hydroxypropylcellulose) (HPC) 102 % of control | dose: 50.0 mg/kg/injection, schedule: Q01DX009 (ip), vehicle: Klucel (hydroxypropylcellulose) (HPC) 96 % of control | dose: 50.0 mg/kg/injection, schedule: Q04DX002 (ip), vehicle: Klucel (hydroxypropylcellulose) (HPC) 105 % of control

CCOC(=O)N1c2ccccc2C=CC1OCC (centres undefined)
inactive: dose: 12.0 mg/kg/injection, schedule: Q01DX009 (ip), vehicle: saline 93 % of control | dose: 12.0 mg/kg/injection, schedule: Q04DX003 (ip), vehicle: saline 119 % of control | dose: 25.0 mg/kg/injection, schedule: Q01DX009 (ip), vehicle: saline 89 % of control | dose: 25.0 mg/kg/injection, schedule: Q04DX003 (ip), vehicle: saline 113 % of control | [4] 89 % of control | dose: 50.0 mg/kg/injection, schedule: Q04DX003 (ip), vehicle: saline 94 % of control

C1CCC2(CC1)SSC1(CCCCC1)S2
inactive: dose: 100.0 mg/kg/injection, schedule: Q04DX003 (ip), vehicle: other 95 % of control | dose: 200.0 mg/kg/injection, schedule: Q04DX003 (ip), vehicle: other 98 % of control | dose: 400.0 mg/kg/injection, schedule: Q04DX003 (ip), vehicle: other 98 % of control

COC(=O)C(CC(C)C)NC(=O)CN(C)C(=O)OCc1ccccc1 (centres undefined)
inactive: dose: 75.0 mg/kg/injection, schedule: Q04DX003 (sc), vehicle: olive oil, sesame oil, peanut oil 105 % of control | dose: 150.0 mg/kg/injection, schedule: Q04DX003 (sc), vehicle: olive oil, sesame oil, peanut oil 103 % of control | dose: 300.0 mg/kg/injection, schedule: Q04DX003 (sc), vehicle: olive oil, sesame oil, peanut oil 108 % of control

O=[N+]([O-])c1ccc2c(c1)OCCOCCOCCOCCO2
inactive: dose: 100.0 mg/kg/injection, schedule: Q04DX002 (ip), vehicle: Klucel (hydroxypropylcellulose) (HPC) 95 % of control | dose: 100.0 mg/kg/injection, schedule: Q04DX002 (ip), vehicle: saline with Tween-80 93 % of control | dose: 200.0 mg/kg/injection, schedule: Q04DX002 (ip), vehicle: Klucel (hydroxypropylcellulose) (HPC) 103 % of control | dose: 200.0 mg/kg/injection, schedule: Q04DX002 (ip), vehicle: saline with Tween-80 104 % of control | dose: 400.0 mg/kg/injection, schedule: Q04DX002 (ip), vehicle: saline with Tween-80 87 % of control

O=C1NC(c2ccc3ccccc3c2)Nc2ccccc21 (centres undefined)
inactive: [5] 103 % of control | [6] 107 % of control | [7] 105 % of control

CC(C)(C)C(=O)CC(=O)C(C)(C)C.CC(C)(C)C(=O)CC(=O)C(C)(C)C.CC(C)(C)C(=O)CC(=O)C(C)(C)C.CC(C)(C)C(=O)CC(=O)C(C)(C)C.[Zr]
inactive: [8] 96 % of control | [5] 94 % of control | [9] 97 % of control | [6] 89 % of control | [10] 96 % of control | [7] 101 % of control

CC(C)(C)C(=O)Nc1ccc(NS(=O)(=O)c2ccccc2)c(Cl)c1
inactive: dose: 50.0 mg/kg/injection, schedule: Q01DX001 (ip), vehicle: Klucel (hydroxypropylcellulose) (HPC) 108 % of control | dose: 100.0 mg/kg/injection, schedule: Q01DX001 (ip), vehicle: Klucel (hydroxypropylcellulose) (HPC) 97 % of control | dose: 200.0 mg/kg/injection, schedule: Q01DX001 (ip), vehicle: Klucel (hydroxypropylcellulose) (HPC) 109 % of control

CCOC(=O)c1cccc(N(CCOS(C)(=O)=O)CCOS(C)(=O)=O)c1
inactive: dose: 16.0 mg/kg/injection, schedule: Q01DX015 (ip), vehicle: saline 110 % of control | dose: 32.0 mg/kg/injection, schedule: Q01DX015 (ip), vehicle: saline 118 % of control | dose: 64.0 mg/kg/injection, schedule: Q01DX015 (ip), vehicle: saline 111 % of control

NC(N)=N/N=C(\c1ccc(F)cc1)c1ccc(C(F)(F)F)cc1
inactive: dose: 9.5 mg/kg/injection, schedule: Q01DX001 (ip), vehicle: other 92 % of control | dose: 19.0 mg/kg/injection, schedule: Q01DX001 (ip), vehicle: other 97 % of control | dose: 38.0 mg/kg/injection, schedule: Q01DX001 (ip), vehicle: other 98 % of control

CCCCCCCCCCCCCCCCCCc1cc(C)ccc1C
inactive: [11] 107 % of control | [12] 90 % of control | [13] 104 % of control

CCN(CC)c1ccc(/C=N\NC(=O)CCCC(=O)N/N=C/c2ccc(N(CC)CC)cc2)cc1
inactive: dose: 50.0 mg/kg/injection, schedule: Q01DX001 (ip), vehicle: saline 102 % of control | dose: 100.0 mg/kg/injection, schedule: Q01DX001 (ip), vehicle: saline 100 % of control | dose: 200.0 mg/kg/injection, schedule: Q01DX001 (ip), vehicle: saline 96 % of control | dose: 400.0 mg/kg/injection, schedule: Q01DX001 (ip), vehicle: saline 100 % of control

COCc1c(C)[nH]c2ccc(N(C)C)cc2c1=O
inactive: [14] 97 % of control | [15] 103 % of control | [16] 105 % of control

CN(CC#N)c1ncnc(Cl)c1[N+](=O)[O-]
inactive: dose: 50.0 mg/kg/injection, schedule: Q01DX001 (ip), vehicle: carboxymethylcellulose (CMC) 95 % of control | [1] 98 % of control | [2] 88 % of control | [3] 98 % of control

O=C1NC(=S)N/C1=C/c1ccc2c(c1)CCC2
inactive: [14] 112 % of control | [17] 95 % of control | [15] 94 % of control | dose: 200.0 mg/kg/injection, schedule: Q04DX003 (ip), vehicle: saline with Tween-80 101 % of control | [16] 102 % of control | dose: 400.0 mg/kg/injection, schedule: Q04DX003 (ip), vehicle: saline with Tween-80 87 % of control

CC(C)C(CN)(CCN1CCCCC1)Cc1cccc2ccccc12 (centres undefined)
inactive: [17] 97 % of control

CCOC(=O)CNS(=O)(=O)CCN1C(=O)c2ccccc2C1=O
inactive: dose: 50.0 mg/kg/injection, schedule: Q04DX003 (ip), vehicle: Klucel (hydroxypropylcellulose) (HPC) 98 % of control | [5] 100 % of control | [6] 98 % of control

CC/C=C/C1(C(C)C)C(=O)NC(=O)NC1=O
inactive: dose: 75.0 mg/kg/injection, schedule: Q01DX001 (ip), vehicle: saline 103 % of control | dose: 150.0 mg/kg/injection, schedule: Q01DX001 (ip), vehicle: saline 105 % of control

CC(=O)OCC(=O)C1(O)CCC2C3CCC4CC(OC(C)=O)CCC4(C)C3CC(=O)C21C (centres undefined)
inactive: [11] 106 % of control | [12] 101 % of control | [13] 102 % of control

C=C(Cl)CSC(=S)N(C)C
inactive: [4] 98 % of control | dose: 100.0 mg/kg/injection, schedule: Q01DX009 (ip), vehicle: saline 98 % of control

O=C1OC(c2cccc3c(F)cccc23)c2ccccc21 (centres undefined)
inactive: [8] 96 % of control | [9] 95 % of control | [10] 93 % of control
